The record followed here is patent US11771738B2 (Zoetis Services LLC, priority 2018, dated 2023).

Assay type in all cases: cell-based
One assay has as its system D. immitis L4 larvae. The assay is described as follows: Dirofilaria immitis, L4 Stage (DiL4) In Vitro Assay. The following applies: for minimal effective concentration: Dirofilaria immitis, 72 h, read-out: DiL4 MED, Minimum Effective Dose, D. immitis L4 larvae motility, in vitro; for DiMf/DiL4: larval stage selectivity, ratio of DiMf MED to DiL4 MED; for DiL4 MED: Minimum Effective Dose, D. immitis L4 larvae motility, in vitro.

In assay [1] the test system is third stage larvae of Haemonchus contortus. Nature of the assay: Haemonchus contortus, Larvae Stage 3 (HcL3) In Vitro Assay. The settings on record: for minimal effective concentration: Haemonchus contortus, 96 h; for HcL3 MED: Minimum Effective Dose, H. contortus third stage larvae, approximately 96 hours.
Assay [2] relates to microfilariae of Dirofilaria immitis. Nature of the assay: Dirofilaria immitis, Microfilaria (DiMf) In Vitro Assay. The following applies: for minimal effective concentration: Dirofilaria immitis, 72 h, read-out: DiMf MED, Minimum Effective Dose, D. immitis microfilariae motility, in vitro.
Where [3] appears, read: read-out: HcL3 MED (symbol after Ex#), approximately 96 hours incubation, multiple-resistant field isolate.
Where [4] appears, read: read-out: HcL3 MED, Minimum Effective Dose, H. contortus third stage larvae, approximately 96 hours.
The mark [5] stands for this setting: read-out: HcL3 MED, approximately 96 hours incubation, multiple-resistant field isolate.

Where two headings read alike, the source gives them in different places. Marks after values point to notes of the source that are not given here.

For the compound `CC(C)C[C@H]1C(=O)O[C@H](Cc2ccc(Cc3ccsc3)cc2)C(=O)N(C)[C@@H](CC(C)C)C(=O)O[C@H](C)C(=O)N(C)[C@@H](CC(C)C)C(=O)O[C@H](Cc2ccccc2)C(=O)N(C)[C@@H](CC(C)C)C(=O)O[C@H](C)C(=O)N1C` [Example 4-50, (3S,6R,9S,12R,15S,18R,21S,24R)-6-benzyl-3,9,15,21-tetraisobutyl-4,10,12,16,22,24-hexamethyl-18-(4-(thiophen-3-ylmethyl)benzyl)-1,7,13,19-tetraoxa-4,10,16,22-tetraazacyclotetracosan-2,5,8,11,14,17,20,23-octaone], the minimal effective concentration in the assay with D. immitis L4 larvae was 0.001 µM; in assay [1] (setting [3]), 1 to 3.3 µM; in assay [1] (setting [4]) it was 1.8 µM; in assay [2], 0.01 µM. Moreover, the DiMf/DiL4 in the assay with D. immitis L4 larvae is on record as 10.
Turning to `CC(C)C[C@H]1C(=O)O[C@H](Cc2ccc(Cc3ccnn3C)cc2)C(=O)N(C)[C@@H](CC(C)C)C(=O)O[C@H](C)C(=O)N(C)[C@@H](CC(C)C)C(=O)O[C@H](Cc2ccccc2)C(=O)N(C)[C@@H](CC(C)C)C(=O)O[C@H](C)C(=O)N1C` [Example 4-63, (3S,6R,9S,12R,15S,18R,21S,24R)-6-benzyl-3,9,15,21-tetraisobutyl-4,10,12,16,22,24-hexamethyl-18-(4-((1-methyl-1H-pyrazol-5-yl)methyl)benzyl)-1,7,13,19-tetraoxa-4,10,16,22-tetraazacyclotetracosan-2,5,8,11,14,17,20,23-octaone], the minimal effective concentration was 0.001 µM in the assay on D. immitis L4 larvae; less than 1 µM in assay [1] (setting [3]); 1 µM in assay [1] (setting [4]); not above 1 µM in assay [1] (setting [5]); 0.001 µM in assay [2]. Besides, the DiMf/DiL4 in the assay with D. immitis L4 larvae is on record as 1.
For the compound `CC(C)C[C@H]1C(=O)O[C@H](Cc2ccc(Cc3sccc3Cl)cc2)C(=O)N(C)[C@@H](CC(C)C)C(=O)O[C@H](C)C(=O)N(C)[C@@H](CC(C)C)C(=O)O[C@H](Cc2ccccc2)C(=O)N(C)[C@@H](CC(C)C)C(=O)O[C@H](C)C(=O)N1C` [Example 4-75, (3S,6R,9S,12R,15S,18R,21S,24R)-6-benzyl-18-(4-((3-chlorothiophen-2-yl)methyl)benzyl)-3,9,15,21-tetraisobutyl-4,10,12,16,22,24-hexamethyl-1,7,13,19-tetraoxa-4,10,16,22-tetraazacyclotetracosan-2,5,8,11,14,17,20,23-octaone], the minimal effective concentration is 0.0005 µM with D. immitis L4 larvae; less than 1 µM in assay [1] (setting [3]); 1 µM in assay [1] (setting [4]); not above 1 µM in assay [1] (setting [5]); 0.01 µM in assay [2]. For the same compound, the DiMf/DiL4 with D. immitis L4 larvae was 20.
`COc1ccsc1Cc1ccc(C[C@H]2OC(=O)[C@H](CC(C)C)N(C)C(=O)[C@@H](C)OC(=O)[C@H](CC(C)C)N(C)C(=O)[C@@H](Cc3ccccc3)OC(=O)[C@H](CC(C)C)N(C)C(=O)[C@@H](C)OC(=O)[C@H](CC(C)C)N(C)C2=O)cc1` [Example 4-105, (3S,6R,9S,12R,15S,18R,21S,24R)-6-benzyl-3,9,15,21-tetraisobutyl-18-(4-((3-methoxythiophen-2-yl)methyl)benzyl)-4,10,12,16,22,24-hexamethyl-1,7,13,19-tetraoxa-4,10,16,22-tetraazacyclotetracosan-2,5,8,11,14,17,20,23-octaone]: the minimal effective concentration in the assay on D. immitis L4 larvae is 0.0002 µM; in assay [1] (setting [3]), less than 1 µM; in assay [1] (setting [4]) it was 0.3 µM; in assay [1] (setting [5]) it was not above 1 µM; in assay [2] it was 0.005 µM. The DiMf/DiL4 in the assay with D. immitis L4 larvae was 25.
In the case of `CC(C)C[C@H]1C(=O)O[C@H](Cc2ccc(Cc3scnc3Cl)cc2)C(=O)N(C)[C@@H](CC(C)C)C(=O)O[C@H](C)C(=O)N(C)[C@@H](CC(C)C)C(=O)O[C@H](Cc2ccccc2)C(=O)N(C)[C@@H](CC(C)C)C(=O)O[C@H](C)C(=O)N1C` [Example 4-107, (3S,6R,9S,12R,15S,18R,21S,24R)-6-benzyl-18-(4-((4-chlorothiazol-5-yl)methyl)benzyl)-3,9,15,21-tetraisobutyl-4,10,12,16,22,24-hexamethyl-1,7,13,19-tetraoxa-4,10,16,22-tetraazacyclotetracosan-2,5,8,11,14,17,20,23-octaone], the minimal effective concentration is 0.0002 µM in the assay on D. immitis L4 larvae; less than 1 µM in assay [1] (setting [3]); 0.3 µM in assay [1] (setting [4]); not above 1 µM in assay [1] (setting [5]); 0.003 µM in assay [2]. Also, the DiMf/DiL4 in the assay with D. immitis L4 larvae is 15.
With `Cc1noc(C)c1Cc1ccc(C[C@H]2OC(=O)[C@H](CC(C)C)N(C)C(=O)[C@@H](C)OC(=O)[C@H](CC(C)C)N(C)C(=O)[C@@H](Cc3ccccc3)OC(=O)[C@H](CC(C)C)N(C)C(=O)[C@@H](C)OC(=O)[C@H](CC(C)C)N(C)C2=O)cc1` [Example 4-109, (3S,6R,9S,12R,15S,18R,21S,24R)-6-benzyl-18-(4-((3,5-dimethylisoxazol-4-yl)methyl)benzyl)-3,9,15,21-tetraisobutyl-4,10,12,16,22,24-hexamethyl-1,7,13,19-tetraoxa-4,10,16,22-tetraazacyclotetracosan-2,5,8,11,14,17,20,23-octaone], the minimal effective concentration with D. immitis L4 larvae was 0.0004 µM; in assay [1] (setting [3]), less than 1 µM; in assay [1] (setting [4]), 1 µM; in assay [1] (setting [5]) it was not above 1 µM; in assay [2] it was 0.001 µM. For the same compound, the DiMf/DiL4 in the assay on D. immitis L4 larvae worked out at 2.5.
Turning to `COc1ccc(Cc2ccc(C[C@H]3OC(=O)[C@H](CC(C)C)N(C)C(=O)[C@@H](C)OC(=O)[C@H](CC(C)C)N(C)C(=O)[C@@H](Cc4ccccc4)OC(=O)[C@H](CC(C)C)N(C)C(=O)[C@@H](C)OC(=O)[C@H](CC(C)C)N(C)C3=O)cc2)c(C)n1` [Example 4-118, (3S,6R,9S,12R,15S,18R,21S,24R)-6-benzyl-3,9,15,21-tetraisobutyl-18-(4-((6-methoxy-2-methylpyridin-3-yl)methyl)benzyl)-4,10,12,16,22,24-hexamethyl-1,7,13,19-tetraoxa-4,10,16,22-tetraazacyclotetracosan-2,5,8,11,14,17,20,23-octaone], the minimal effective concentration in the assay on D. immitis L4 larvae is 0.0001 µM; in assay [1] (setting [3]) it was less than 1 µM; in assay [1] (setting [4]), 0.3 µM; in assay [1] (setting [5]), not above 1 µM; in assay [2], 0.001 µM. Also, in the assay on D. immitis L4 larvae, the DiMf/DiL4 is listed as 10.
With `COc1cc(C)c(Cc2ccc(C[C@H]3OC(=O)[C@H](CC(C)C)N(C)C(=O)[C@@H](C)OC(=O)[C@H](CC(C)C)N(C)C(=O)[C@@H](Cc4ccccc4)OC(=O)[C@H](CC(C)C)N(C)C(=O)[C@@H](C)OC(=O)[C@H](CC(C)C)N(C)C3=O)cc2)cn1` [Example 4-126, (3S,6R,9S,12R,15S,18R,21S,24R)-6-benzyl-3,9,15,21-tetraisobutyl-18-(4-((6-methoxy-4-methylpyridin-3-yl)methyl)benzyl)-4,10,12,16,22,24-hexamethyl-1,7,13,19-tetraoxa-4,10,16,22-tetraazacyclotetracosan-2,5,8,11,14,17,20,23-octaone], the minimal effective concentration is 0.0002 µM in the assay on D. immitis L4 larvae, 1 to 3.3 µM in assay [1] (setting [3]), 1.8 µM in assay [1] (setting [4]) and 0.003 µM in assay [2]. In addition, the DiMf/DiL4 with D. immitis L4 larvae was 15.
Take `Cc1ncccc1Cc1ccc(C[C@H]2OC(=O)[C@H](CC(C)C)N(C)C(=O)[C@@H](C)OC(=O)[C@H](CC(C)C)N(C)C(=O)[C@@H](Cc3ccccc3)OC(=O)[C@H](CC(C)C)N(C)C(=O)[C@@H](C)OC(=O)[C@H](CC(C)C)N(C)C2=O)cc1` [Example 4-139]: in the assay on D. immitis L4 larvae, the “DiL4 MED” value is on record as 0.4 nM and the DiMf/DiL4 is on record as 2.5. In addition, in assay [1], the “HcL3 MED” value turned out to be 1 µM. Also, in assay [1] (approximately 96 hours incubation, multiple-resistant field isolate), the “HcL3 MED (symbol after Ex#)” value is 4-139* (Examples with an asterisk (*) have HcL3 MED values≤1 μM). For the same compound, in assay [2] (Minimum Effective Dose, D. immitis microfilariae motility, in vitro), the “DiMf MED” value stood at 1 nM.
Turning to `Cc1cnsc1Cc1ccc(C[C@H]2OC(=O)[C@H](CC(C)C)N(C)C(=O)[C@@H](C)OC(=O)[C@H](CC(C)C)N(C)C(=O)[C@@H](Cc3ccc(Cc4sncc4C)cc3)OC(=O)[C@H](CC(C)C)N(C)C(=O)[C@@H](C)OC(=O)[C@H](CC(C)C)N(C)C2=O)cc1` [Example 4-141, (3S,6R,9S,12R,15S,18R,21S,24R)-3,9,15,21-tetraisobutyl-4,6,10,16,18,22-hexamethyl-12,24-bis(4-((4-methylisothiazol-5-yl)methyl)benzyl)-1,7,13,19-tetraoxa-4,10,16,22-tetraazacyclotetracosan-2,5,8,11,14,17,20,23-octaone], the “DiL4 MED” value with D. immitis L4 larvae (listed as (4-141)) is recorded as 1 nM. In addition, in the assay on D. immitis L4 larvae (listed as (4-141)), the DiMf/DiL4 is 3. The minimal effective concentration in assay [1] (setting [3]) is 1 to 3.3 µM; in assay [2], 0.003 µM. The “HcL3 MED” value in assay [1] (listed as (4-141)) worked out at 1.8 µM.
